Measured values reported in patent US9169203B2, “Sulfoxide-based surfactants” (Novus International Inc., priority 2012, dated 2015).

How the values were obtained:
[1] = Critical micelle concentration (CMC), Wilhelmy plate method; format: physicochemical; conditions: in water at 25° C. and atmospheric pressure
Description: (§1) To determine whether the sulfoxide-based compounds synthesized in Examples 1-9 had surfactant properties, the critical micelle concentration (CMC), surface tension, and solubility were determined. The Wilhelmy plate method was used to determine the equilibrium surface or interfacial tension at an air-liquid interface. A Cahn DCA 322 high-sensitivity balance was used to perform the measurement. Glass slides manufactured by Corning with a width of 22 mm and thickness of 0.1 mm were used as probes; the motor speed was set to be 160 μm/sec. […] The measured force was converted to surface tension using the Wilhelmy equation. The CMC was calculated according to standard procedures.
(§2) The following compounds were tested: (1) hexyl 2-hydroxy-4-[…] (R6SO); (2) octyl 2-hydroxy-4-(methylsulfinyl)butanoate (R8SO); (3) a mixture of 70 wt % R8SO and 30 wt % decyl 2-hydroxy-4-(methylsulfinyl)butanoate (R10SO); (4) a mixture of 70 wt % R8SO and 30 wt % dodecyl 2-hydroxy-4-(methylsulfinyl)butanoate (R12SO); (5) 2-hydroxy-4-(methylsulfinyl)-N-octylbutanamide (R8NHSO); (6) a mixture of 60 wt % R8NHSO and 40 wt % 2-hydroxy-4-(methylsulfinyl)-N-decylbutanamide (R10NHSO); (7) a mixture of 75 wt % R8NHSO and 25 wt % 2-hydroxy-4-(methylsulfinyl)-N-dodecylbutanamide (R12NHSO); as well as the commercially available nonionic surfactants (8) Igepal® CO-630, a branched nonylphenol ethoxylate, and two alkyl ethylene oxides, (9) hexaethylene glycol monododecyl ether (C12E6) and (10) hexaethylene glycol monodecyl ether (C10E6).

[2] = Surface tension at air-liquid interface at CMC, Wilhelmy plate method; format: physicochemical; conditions: 25° C. and atmospheric pressure
Description: as §1, §2

Solubility in water = format: physicochemical; conditions: in water at 25° C. and atmospheric pressure
Description: as §1, §2

[3] = tested on: fresh water fish (i.e., fathead minnows); assay: Fresh water fish acute toxicity test (OECD 203); format: in vivo; conditions: at 96 hr
Description: (§3) The potential hazards of the sulfoxide-based compounds were examined by evaluating the toxicity of R8SO in three standard bioassays (i.e., fresh water algae growth inhibition test, Daphnia acute immobilization test, and fresh water fish acute toxicity test).
The fresh water fish acute toxicity test was conduced according to OECD 203 guidelines. For this test, fresh water fish (i.e., fathead minnows) were exposed to a series of concentrations of the test substances for a period of 96 hours. At least seven fishes were used at each test concentration and in the controls. Mortalities were recorded at 24, 48, 72, and 96 hours. Fish were considered dead if there was no visible movement (e.g. gill movements) and if touching of the caudal peduncle produced no reaction. The mortality counts were used to determine LC50, the concentration that killed 50% of the fish.

fresh water algae = assay: Fresh water algae growth inhibition test (OECD 201); format: cell-based; conditions: at 72 hr
Description: as §3
The fresh water algae growth inhibition test was conducted according to OECD 201 guidelines. Briefly, exponentially growing fresh water algae were exposed to several concentrations of the test substances in batch cultures over a period of 72 hours. The cultures were allowed unrestricted exponential growth under nutrient sufficient conditions and continuous fluorescent illumination. Three replicates at each test concentration were used. Growth was monitored over time and compared to the average growth of control cultures (with no test substances). Growth and growth inhibition are quantified from measurements of the algal biomass as a function of time.

Daphnia = Daphnia acute immobilization test (OECD 202); format: in vivo; conditions: at 48 hr
Description: as §3
The Daphnia acute immobilization test was performed according to the OECD 202 guidelines. Briefly, young daphnids, ages less than 24 hours at the start of the test, were exposed to the test substances at a range of concentrations for a period of 48 hours. Generally, at least 20 animals, preferably divided into four groups of five animals each, were tested for each test concentration and for the controls (i.e., no test substance). The Daphnia were not fed during the test. At least 2 mL of test solution were provided for each animal. Temperatures were held between 18 and 22° C., and for each single test the temperature was within ±1° C. Immobilization was recorded at 24 hours and 48 hours, and compared to control values. Those animals that could not swim within 15 seconds after gentle agitation of the test container were considered to be immobile.

CMC [1] [mM]	Surface Tension at CMC [2] [mN/m]	Solubility (Solubility in water)	SMILES	LC50 (concentration that killed 50% of the fish) [3] [ppm]	EC50 (50 percent reduction in growth relative to the control) (fresh water algae) [ppm]	EC50 (concentration at which 50% of the animals were immobilized) (Daphnia) [ppm]
0.90	42	–	CCCCCCCCCCOCCOCCOCCOCCOCCOCCO [Example C10E6, hexaethylene glycol monodecyl ether, reference compound]	–	–	–
0.087	41	–	CCCCCCCCCCCCOCCOCCOCCOCCOCCOCCO [Example C12E6, hexaethylene glycol monododecyl ether, reference compound]	–	–	–
120.9	33	>50% (wt/wt total)	CCCCCCOC(=O)C(O)CC[S+](C)[O-] (stereo not shown) [Example R6SO, hexyl 2-hydroxy-4-(methylsulfinyl)butanoate]	–	–	–
10.3	29	>50% (wt/wt total)	CCCCCCCCNC(=O)C(O)CC[S+](C)[O-] (stereo not shown) [Example R8NHSO, 2-hydroxy-4-(methylsulfinyl)-N-octylbutanamide]	–	–	–

SMILES	CMC [1] [mM]	Surface Tension at CMC [2] [mN/m]	Solubility (Solubility in water)	LC50 (concentration that killed 50% of the fish) [3] [ppm]	EC50 (50 percent reduction in growth relative to the control) (fresh water algae) [ppm]	EC50 (concentration at which 50% of the animals were immobilized) (Daphnia) [ppm]
CCCCCCCCOC(=O)C(O)CC[S+](C)[O-] (stereo not shown) [Example R8SO, octyl 2-hydroxy-4-(methylsulfinyl)butanoate]	11.7	29	>50% (wt/wt total)	148	175	79
